# From ChEMBL document CHEMBL4177573 (Bioorg Med Chem, 2017)
# Square brackets hold non-standard residues; d marks the D form. Peptide text beside a SMILES is read from it. Cha = N[C@@H](CC1CCCCC1)C(=O)O; Aib = CC(C)(N)C(=O)O
# Tests used:
# [1] = target: T1, Neuropeptide Y receptor type 2 (Homo sapiens, UniProt P49146); test: Displacement of [125I]-PYY from human neuropeptide Y2 receptor expressed in CHO cell membranes incubated for 60 mins by TopCount based method
# T1 sequence (P49146 whole entry): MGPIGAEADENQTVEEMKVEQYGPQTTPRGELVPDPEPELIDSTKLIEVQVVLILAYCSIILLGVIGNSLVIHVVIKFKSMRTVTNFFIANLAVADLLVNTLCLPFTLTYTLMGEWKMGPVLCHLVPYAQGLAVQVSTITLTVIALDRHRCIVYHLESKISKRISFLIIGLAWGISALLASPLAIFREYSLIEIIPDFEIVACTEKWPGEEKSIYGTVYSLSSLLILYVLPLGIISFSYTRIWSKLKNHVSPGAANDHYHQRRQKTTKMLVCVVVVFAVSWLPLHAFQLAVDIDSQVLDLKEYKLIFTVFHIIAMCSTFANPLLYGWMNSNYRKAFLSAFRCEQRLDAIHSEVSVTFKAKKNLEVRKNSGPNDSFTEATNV
# [2] = target: T1, Neuropeptide Y receptor type 2; test: Agonist activity at human neuropeptide Y2 receptor expressed in CHO cell membranes assessed as stimulation of [35S]GTPgammaS binding incubated for 120 mins by liquid scintillation counting method; assay type: functional
# Mus musculus [3] = test: Anorectic activity in C57BL/6J mouse assessed as inhibition of food intake at 1 mg/kg/day, sc for 3 days dosed as continuous administration by infusion using osmotic pump; assay type: functional; details: 72 h
# Mus musculus [4] = test: Anorectic activity in C57BL/6J mouse assessed as inhibition of food intake at 0.3 mg/kg/day, sc for 3 days dosed as continuous administration by infusion using osmotic pump; assay type: functional; details: 72 h
# Mus musculus [5] = test: Anorectic activity in C57BL/6J mouse assessed as inhibition of food intake at 0.1 mg/kg/day, sc for 3 days dosed as continuous administration by infusion using osmotic pump; assay type: functional; details: 72 h
# Mus musculus [6] = test: Anorectic activity in C57BL/6J mouse assessed as inhibition of food intake at 0.03 mg/kg/day, sc for 3 days dosed as continuous administration by infusion using osmotic pump; assay type: functional; details: 72 h
# Mus musculus [7] = test: Anorectic activity in C57BL/6J mouse assessed as inhibition of food intake at 0.3 mg/kg/day, sc dosed as […] and measured after 12 hrs; assay type: functional
# Mus musculus [8] = test: Anorectic activity in C57BL/6J mouse assessed as inhibition of food intake at 0.3 mg/kg/day, sc dosed as […] and measured after 24 hrs; assay type: functional
# Mus musculus [9] = test: Drug level in C57BL/6J mouse at 1 mg/kg, iv measured during 5 mins to 24 hrs by LC/MS/MS method; assay type: ADME, organism-based; details: in vivo, read-out: Drug uptake
SMILES,IC50 [1],EC50 [2],concentration (Mus musculus [9]),inhibition in vivo at 1 mg/kg/day (Mus musculus [3]),inhibition in vivo at 0.3 mg/kg/day (Mus musculus [4]),inhibition in vivo at 0.1 mg/kg/day (Mus musculus [5]),inhibition in vivo at 0.03 mg/kg/day (Mus musculus [6]),inhibition in vivo at 0.3 mg/kg/day (Mus musculus [7]),inhibition in vivo at 0.3 mg/kg/day (Mus musculus [8])
CC[C@](C)(NC(=O)[C@H]1CCCN1C(=O)[C@H](CO)NC(C)=O)C(=O)N[C@@H](Cc1cnc[nH]1)C(=O)N[C@@H](CC1CCCCC1)C(=O)N[C@@H](CC1CCCCC1)C(=O)N[C@@H](CC(N)=O)C(=O)N[C@@H](CC(C)C)C(=O)NC(C)(C)C(=O)N[C@H](C(=O)N[C@@H](CCCNC(=N)N)C(=O)N[C@@H](CCC(N)=O)C(=O)N[C@@H](CCCNC(=N)N)C(=O)N[C@@H](CC1CCCCC1)C(N)=O)[C@@H](C)O,16 nM,2 nM,–,–,2%,–,–,–,–
CC[C@](C)(NC(=O)[C@H](CC1CCCCC1)NC(=O)[C@H](Cc1ccncc1)NC(=O)[C@H](CCCNC(=N)N)NC(=O)[C@H]1CCCN1C(=O)[C@H](CO)NC(C)=O)C(=O)N[C@@H](CC(N)=O)C(=O)N[C@@H](CCCCN)C(=O)NC(C)(C)C(=O)N[C@H](C(=O)N[C@@H](CCCNC(=N)N)C(=O)N[C@@H](CCC(N)=O)C(=O)N[C@@H](CCCNC(=N)N)C(=O)N[C@@H](CC1CCCCC1)C(N)=O)[C@@H](C)O,0.16 nM,0.14 nM,–,–,–,85%,36%,41%,23%
CC(=O)N[C@@H](CO)C(=O)N1CCC[C@@H]1C(=O)N[C@@H](CCCNC(=N)N)C(=O)N[C@@H](Cc1ccncc1)C(=O)N[C@@H](CC1CCCCC1)C(=O)NC(C)(C)C(=O)N[C@@H](CC(N)=O)C(=O)N[C@@H](CCCCN)C(=O)NC(C)(C)C(=O)N[C@H](C(=O)N[C@@H](CCCNC(=N)N)C(=O)N[C@@H](CCC(N)=O)C(=O)N[C@@H](CCCNC(=N)N)C(=O)N[C@@H](CC1CCCCC1)C(N)=O)[C@@H](C)O,–,–,1060 nM,–,112%,80%,38%,35%,15%
CC(=O)N[C@@H](CO)C(=O)N1CCC[C@@H]1C(=O)N[C@@H](CCCNC(=N)N)C(=O)N[C@@H](Cc1cnc[nH]1)C(=O)N[C@@H](CC1CCCCC1)C(=O)N[C@@H](CC1CCCCC1)C(=O)N[C@@H](CC(N)=O)C(=O)N[C@@H](CC(C)C)C(=O)NC(C)(C)C(=O)N[C@H](C(=O)N[C@@H](CCCNC(=N)N)C(=O)N[C@@H](CCC(N)=O)C(=O)N[C@@H](CCCNC(=N)N)C(=O)N[C@@H](CC1CCCCC1)C(N)=O)[C@@H](C)O (Ac-S[dP]RH[Cha][Cha]NL[Aib]TRQR[Cha]-NH2),–,–,–,33%,–,–,–,–,–

# Now from value to molecule, other results behind:
IC50 [1],EC50 [2],concentration (Mus musculus [9]),SMILES,inhibition in vivo at 1 mg/kg/day (Mus musculus [3]),inhibition in vivo at 0.3 mg/kg/day (Mus musculus [4]),inhibition in vivo at 0.1 mg/kg/day (Mus musculus [5]),inhibition in vivo at 0.03 mg/kg/day (Mus musculus [6]),inhibition in vivo at 0.3 mg/kg/day (Mus musculus [7]),inhibition in vivo at 0.3 mg/kg/day (Mus musculus [8])
1.3 nM,0.49 nM,–,CC(C)C[C@H](NC(=O)[C@H](CC(N)=O)NC(=O)[C@H](CC1CCCCC1)NC(=O)[C@H](CC1CCCCC1)NC(=O)[C@H](Cc1cnc[nH]1)NC(=O)[C@H](CCCNC(=N)N)NC(=O)[C@H]1CCCN1C(=O)[C@H](CO)NC(=O)C(C)C)C(=O)NC(C)(C)C(=O)N[C@H](C(=O)N[C@@H](CCCNC(=N)N)C(=O)N[C@@H](CCC(N)=O)C(=O)N[C@@H](CCCNC(=N)N)C(=O)N[C@@H](CC1CCCCC1)C(N)=O)[C@@H](C)O,46%,–,–,–,–,–
1.5 nM,0.8 nM,–,CC(C)C[C@H](NC(=O)[C@H](CC(N)=O)NC(=O)[C@H](CC1CCCCC1)NC(=O)[C@H](CC1CCCCC1)NC(=O)[C@H](Cc1cnc[nH]1)NC(=O)[C@H](CCCNC(=N)N)NC(=O)[C@H]1CCCN1C(=O)[C@H](CO)NC(=O)c1ccccc1)C(=O)NC(C)(C)C(=O)N[C@H](C(=O)N[C@@H](CCCNC(=N)N)C(=O)N[C@@H](CCC(N)=O)C(=O)N[C@@H](CCCNC(=N)N)C(=O)N[C@@H](CC1CCCCC1)C(N)=O)[C@@H](C)O,7%,–,–,–,–,–
